# Results as given in patent EP0565593B1, “REDUCING PESTICIDAL INTERACTIONS IN CROPS” (priority 1990, dated 1992).
# Several values for one entry are separate records, joined by “and”; a condition that tells them apart may be missing. Equal values may be shown once. Read-outs that look alike come from different tables or passages of the source.
# Key:
# Corn [1] = test: Greenhouse test, combination of Procedures II and III: insecticide in-furrow or in cover layer, herbicide and antidote incorporated in cover layer (Examples 1-3, 6; Tables 1-3, 6); type: in vivo; conditions: for % Injury Corn / % Corn Injury PN 3320 / % Corn Injury PN 3377: 3 weeks; for Percent Injury Corn: 7 weeks
# [2] = system: velvetleaf (Abutilon theophrasti); test: Greenhouse test, combination of Procedures II and III (Examples 1, 2; Tables 1, 2); type: in vivo; conditions: for % Injury VELE: 3 weeks; for Percent Injury VELE: 7 weeks
# Corn [3] = test: Greenhouse test in sterile vs. unsterile soils (chemicals and procedures of Example 6); type: in vivo; conditions: Herbicide No. 1
# Experimental: Other greenhouse tests were conducted involving the same chemicals and procedures used in Example 6, to determine any effects from microbial breakdown relative to interactions between the herbicide and insecticides in sterile vs. unsterile soils. […] This finding comports with reports in the trade that organophosphates are known to suffer microbial breakdown due to soil microbes.
# Shattercane (SHCA) = type: in vivo
# Velvetleaf (VELE) [4] = type: in vivo, Abutilon theophrasti
# Giant foxtail (GIFT) [5] = test: whole plant or invertebrate; type: in vivo; conditions: in vivo
# Velvetleaf (VELE) [6] = test: whole plant or invertebrate; type: in vivo, Abutilon theophrasti; conditions: in vivo
# cotton (COTT) = test: Multi-crop greenhouse test, biocide, herbicide and safener applied to soil covers (Examples 65, 66; Tables 64, 65); type: in vivo; design: inhibition: dose or concentration left out as unconfirmed; conditions: Gossypium hirsutum, soil, Biocide No. 1 8.96 Kg/Ha alone
# Experimental: (§1) Tests according to this invention in various crops indicate widespread application of the invention. In Examples 62-66 below are described tests with a variety of herbicides contacted with COUNTER® 15G in the presence and absence of MON-7400 (Antidote No. 12); MON-13900 (No. 1); MON-4660 (No. 16) and flurazole (No. 16). Those tests were conducted according to Procedures IV or V described above and illustrated further in other foregoing examples. Plants used in all tests were, for crops (as abbreviated in parentheses); cotton (COTT); soybean (SOBE); CORN, grain sorghum (GRSO); wheat (WHEA) and RICE, and the weeds giant foxtail (GIFT) and velvetleaf (VELE). The data in the tables below represent averages of two replications.
# (§2) In this test the crops and weeds were planted 1.3 cm deep in 13.7 cm X 27.7 cm pans containing Dupo silt loam soil. The test safeners were applied in acetone solution and COUNTER 15G as dry granules to soil cover layers and incorporated by shaking in a bag. Treated cover layers were placed on seeded pans which were transferred to greenhouse benches and subirrigated. Herbicide was applied POE six (6) days after PPI initiation and observations of plant injury made ten (10) days later; results are shown in Table 61. The herbicide used in this example was BEACON (No. 8).
# In another test in the several crops and weeds used in this test series, the herbicidal component was MON-12000 (No. 1); the other components were the same. the procedure used in this test was the same as that described in Example 62, modified to use a light overhead irrigation (about 0.32 cm/day) during days 4-7 of the test.
# In yet another test in this series, XRD-498 (Herbicide No. 21) was used as the herbicidal component in contact with COUNTER 15G in the presence of the above safeners. The various components of the system (biocide, herbicide and safener) were applied concurrently to soil covers of the seeded plants.
# Corn [7] = test: Multi-crop greenhouse test, soil-applied (Examples 65, 66; Tables 64, 65); type: in vivo; design: inhibition: dose or concentration left out as unconfirmed; conditions: Zea mays, Biocide No. 1 8.96 Kg/Ha alone
# Experimental: as §1, §2
# (§3) In another test in the several crops and weeds used in this test series, the herbicidal component was MON-12000 (No. 1); the other components were the same. the procedure used in this test was the same as that described in Example 62, modified to use a light overhead irrigation (about 0.32 cm/day) during days 4-7 of the test. Table 64 […]
# Giant foxtail (GIFT) [8] = test: as above; type: in vivo; design: inhibition: dose or concentration left out as unconfirmed; conditions: Setaria faberi, Biocide No. 1 8.96 Kg/Ha alone
# Experimental: as §1, §2, §3
# RICE = test: as above; type: in vivo; design: inhibition: dose or concentration left out as unconfirmed; conditions: Oryza sativa, Biocide No. 1 8.96 Kg/Ha alone
# Experimental: as §1, §2, §3
# grain sorghum (GRSO) = test: as above; type: in vivo; design: inhibition: dose or concentration left out as unconfirmed; conditions: Sorghum, Biocide No. 1 8.96 Kg/Ha alone
# Experimental: as §1, §2, §3
# soybean (SOBE) = test: as above; type: in vivo; design: inhibition: dose or concentration left out as unconfirmed; conditions: Glycine max, Biocide No. 1 8.96 Kg/Ha alone
# Experimental: as §1, §2, §3
# wheat (WHEA) = test: as above; type: in vivo; design: inhibition: dose or concentration left out as unconfirmed; conditions: Triticum aestivum, Biocide No. 1 8.96 Kg/Ha alone
# Experimental: as §1, §2, §3
# Velvetleaf (VELE) [9] = test: as above; type: in vivo, Abutilon theophrasti; design: inhibition: dose or concentration left out as unconfirmed; conditions: Abutilon theophrasti, Biocide No. 1 8.96 Kg/Ha alone
# Experimental: as §1, §2, §3
# Corn [10] = system: Corn
# Corn [11] = conditions: in vivo
# Corn [12] = test: Greenhouse test Procedure II: herbicide, insecticide and antidote incorporated in cover layer (Example 4; Table 4); type: in vivo; conditions: Insecticide 2 3.36 kg/Ha alone; 3 weeks
# Experimental: (§4) Containers were filled and compacted with a fumigated silt loam top soil to a depth of about 1.3 cm from the top of the container. A first container was designated as an untreated control, a second container was designated as a herbicide control, and a third container was designated as a herbicide + antidote test container. Each of the containers was seeded with a crop species. A measured amount of herbicide dispersed or dissolved in acetone was applied to a measured quantity of soil. To this same quantity of soil treated with herbicide, there was added a measured amount of antidote dispersed or dissolved in acetone. The quantity of soil treated with the herbicide and antidote was thoroughly mixed to incorporate the herbicide and antidote in the soil uniformly. The seed bed in the third container of soil was covered with the soil treated with the herbicide and antidote and the container was leveled. For each test series, the seed beds of the first and second containers were likewise covered by soil layers. the cover layer of the first container was not treated with herbicide or antidote.
# (§5) This procedure is the same as Procedure I, but modified in the manner that after incorporation of the chemicals (herbicide, antidote and insecticide), the containers with the covered seedbed were treated with an initial overhead irrigation equivalent to 0.6 cm rainfall, then subsequently sub-irrigated as required on greenhouse benches.
# (§6) The procedure used in this test was Procedure No. 2 above. Formulations of herbicide, insecticide and antidote were applied via track sprayer sequentially onto cover layers, incorporated into the soil which was spread over seedbeds, then irrigated from above with 0.6 cm water. Observations were made three (3) weeks after treatment.
# VELE (velvetleaf) [13] = test: Greenhouse test Procedure II (Example 4; Table 4); type: in vivo, Abutilon theophrasti; conditions: Insecticide 2 3.36 kg/Ha alone; 3 weeks
# Experimental: as §4, §5, §6
# Corn [14] = test: Greenhouse test Procedure I with PPI or POE herbicide and foliar insecticide (Example 5; Table 5); type: in vivo
# Experimental: as §4
# (§7) Insecticide application was made as described in the tests in the examples below. The containers were then placed on a bench in a greenhouse and sub-irrigated as required for the duration of the test.
# (§8) Said herbicide and antidote were sequentially pipetted onto cover layers, which were spread over the seed beds and subirrigated as in Procedure I and allowed to grow to a height of about 10 cm over a period of 11 days. Herbicide No. 1 and Insecticide No. 2 were then sequentially sprayed on the plant foliage. Observations were made three (3) weeks after initial treatment, 10 days after foliar treatment).
# VELE (velvetleaf) [15] = test: as above; type: in vivo, Abutilon theophrasti
# Experimental: as §4, §7, §8
# [16] = Ex. 2: Insecticide 1 0.23 Kg/305m alone
# [17] = Ex. 6: Insecticide 1 0.23 Kg/305m alone
# [18] = Insecticide 1 0.23 kg/305m alone
# [19] = Insecticide 1 (H2O) (crystals scattered in-furrow) alone
# [20] = Ex. 12: Biocide No. 1 8.96 Kg/Ha PPI alone, 13 days after planting
# [21] = no antidote, […], observed 10 days after herbicide application
# [22] = Ex. 2: Insecticide 2 3.36 kg/Ha alone
# [23] = Ex. 6: Insecticide 2 0.23 Kg/305m alone
# [24] = Insecticide 2 1.68 Kg/Ha, herbicide cell '-', mode POE (so in the source)
# [25] = Table 14: no antidote, Herbicide No. 7 0.84 Kg/Ha POE and/or Biocide No. 2 8.96 Kg/Ha PPI, per label, 13 days after planting
# [26] = no antidote, […], 13 days after planting
smiles,measurement,setting,value
"CCOP(=S)(OCC)SCSC(C)(C)C [Biocide No. 1, S-[[(1,1-dimethyl-ethyl)thio]-methyl]O,O-diethylphosphorodithioate, reference compound]",% Injury Corn,Corn [1]; [16],3%
same,% Corn Injury PN 3320,Corn [1]; [17],0%
same,% Corn Injury PN 3377,Corn [1]; [17],0%
same,Percent Injury Corn,Corn [1]; [18],0%
same,Percent Injury Corn,Corn [1]; [19],0%
same,% Injury VELE,[2]; [16],0%
same,Percent Injury VELE,[2]; [18],0%
same,Percent Injury VELE,[2]; [19],0%
same,interactions with herbicide in unsterile vs. sterile soil,Corn [3],did not appear to be reduced
same,% Inhibition SHCA,Shattercane (SHCA); [20],25%
same,% Inhibition SHCA,Shattercane (SHCA); [21],20%
same,% Inhibition VELE,Velvetleaf (VELE) [4]; [21],15%
same,% Inhibition GIFT,Giant foxtail (GIFT) [5],10% and 20%
same,% Inhibition VELE,Velvetleaf (VELE) [6],0%
same,inhibition,cotton (COTT); Table 64,0%
same,inhibition,cotton (COTT); Table 65,0%
same,inhibition,Corn [7]; Table 64,0%
same,inhibition,Corn [7]; Table 65,0%
same,inhibition,Giant foxtail (GIFT) [8]; Table 64,30%
same,inhibition,Giant foxtail (GIFT) [8]; Table 65,30%
same,inhibition,RICE; Table 64,10%
same,inhibition,RICE; Table 65,0%
same,inhibition,grain sorghum (GRSO); Table 64,0%
same,inhibition,grain sorghum (GRSO); Table 65,0%
same,inhibition,soybean (SOBE); Table 64,0%
same,inhibition,soybean (SOBE); Table 65,0%
same,inhibition,wheat (WHEA); Table 64,0%
same,inhibition,wheat (WHEA); Table 65,0%
same,inhibition,Velvetleaf (VELE) [9]; Table 64,0%
same,inhibition,Velvetleaf (VELE) [9]; Table 65,0%
same,% Inhibition Corn,Corn [10]; [20],5%
same,effect on corn before application of the herbicide,Corn [10]; in vivo,slight early stunting and leaf malformation
same,% Inhibition Corn,Corn [11],5% and 0%
"CCOP(=S)(OCC)Oc1nc(Cl)c(Cl)cc1Cl [Biocide No. 2, O,O-Diethyl O-(3,5,6-trichloro-2-pyridyl)phosphorothioate, reference compound]",% Injury Corn,Corn [1]; [22],8%
same,% Corn Injury PN 3320,Corn [1]; [23],0%
same,% Corn Injury PN 3377,Corn [1]; [23],0%
same,Percent Injury Corn,Corn [1]; Insecticide 2 3.36 kg/ha alone,0%
same,% Injury VELE,[2]; [22],3%
same,Percent Injury VELE,[2]; Insecticide 2 3.36 kg/ha alone,0%
same,% Injury Corn,Corn [12],0%
same,% Injury VELE,VELE (velvetleaf) [13],0%
same,% Injury Corn,Corn [14]; Insecticide 2 1.68 Kg/Ha alone,0%
same,% Injury Corn,Corn [14]; [24],35%
same,% Injury VELE,VELE (velvetleaf) [15]; Insecticide 2 1.68 Kg/Ha alone,0%
same,% Injury VELE,VELE (velvetleaf) [15]; [24],60%
same,interactions with herbicide in unsterile vs. sterile soil,Corn [3],did not appear to be reduced
same,% Inhibition SHCA,Shattercane (SHCA); [25],0%
same,% Inhibition SHCA,Shattercane (SHCA); in vivo,30%
same,% Inhibition SHCA,Shattercane (SHCA); [26],25%
same,% Inhibition VELE,Velvetleaf (VELE) [4]; [25],0%
same,% Inhibition VELE,Velvetleaf (VELE) [4]; in vivo,0%
same,% Inhibition VELE,Velvetleaf (VELE) [4]; [26],0%
same,% Inhibition GIFT,Giant foxtail (GIFT) [5],45% and 70%
same,% Inhibition Corn,Corn [10]; [25],0%
same,% Inhibition Corn,Corn [10]; in vivo,0%
same,% Inhibition Corn,Corn [10]; [26],0%
same,% Inhibition Corn,Corn [11],0%
